Experimental data published in BindingDB's records for PubMed 38943600 (China Pharmaceutical University).
*1 amine or outer side, *2 acyl side, *3 side chain or, on linkers, in order; H or OH if unused. Where a SMILES comes first, the peptide text is derived from it. The star is where a group is joined. ξ: configuration not given here. X6 = Nc1ccn(C2OC(COC(=O)CCCCCN3C(=O)CC(*)C3=O)C(O)C2(F)F)c(=O)n1; C18 diacid = O=C(O)CCCCCCCCCCCCCCCCC(=O)*; ξγGlu = O=C(O)C(CCC(=O)[*:2])N[*:1]; AEEA = NCCOCCOCC(=O)O

Target: Inactive tyrosine-protein kinase transmembrane receptor ROR1 (Homo sapiens, UniProt Q01973)
Sequence (Q01973 whole entry, the tested form may be a part): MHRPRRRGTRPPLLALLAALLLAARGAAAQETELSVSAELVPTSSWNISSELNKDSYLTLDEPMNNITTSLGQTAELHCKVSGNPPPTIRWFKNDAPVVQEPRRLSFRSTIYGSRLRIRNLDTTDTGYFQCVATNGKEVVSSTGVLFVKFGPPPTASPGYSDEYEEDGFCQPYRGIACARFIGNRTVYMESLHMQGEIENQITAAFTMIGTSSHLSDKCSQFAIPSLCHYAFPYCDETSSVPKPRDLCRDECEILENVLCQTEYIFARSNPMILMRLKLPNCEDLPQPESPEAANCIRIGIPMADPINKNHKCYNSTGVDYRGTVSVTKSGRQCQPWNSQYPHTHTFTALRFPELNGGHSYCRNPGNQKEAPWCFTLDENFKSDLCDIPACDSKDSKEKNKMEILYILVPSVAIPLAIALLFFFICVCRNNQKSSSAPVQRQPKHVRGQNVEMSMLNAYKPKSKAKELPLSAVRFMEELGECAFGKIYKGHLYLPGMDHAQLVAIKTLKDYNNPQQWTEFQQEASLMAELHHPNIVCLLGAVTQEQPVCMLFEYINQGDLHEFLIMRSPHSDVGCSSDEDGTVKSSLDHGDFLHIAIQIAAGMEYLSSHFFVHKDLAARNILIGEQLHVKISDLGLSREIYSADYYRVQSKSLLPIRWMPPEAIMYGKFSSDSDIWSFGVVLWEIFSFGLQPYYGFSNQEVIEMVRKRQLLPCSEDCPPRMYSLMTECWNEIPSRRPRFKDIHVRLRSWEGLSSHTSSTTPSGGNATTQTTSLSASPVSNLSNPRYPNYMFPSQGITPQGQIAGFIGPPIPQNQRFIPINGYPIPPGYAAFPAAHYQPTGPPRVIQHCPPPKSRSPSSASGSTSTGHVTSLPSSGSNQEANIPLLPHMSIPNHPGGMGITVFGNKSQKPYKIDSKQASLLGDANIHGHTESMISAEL
Assay: Binding affinity to N-terminal His/GST-tagged recombinant human ROR1 (453 to 783 residues) extracted from baculovirus infected insect cells assessed as dissociation constant by SPR analysis

Kd: 1.2 nM
Structure (SMILES): CC[C@H](C)[C@H](NC(=O)[C@H](CC(=O)O)NC(=O)[C@H](CO)NC(=O)CNC(=O)[C@H](CSC1CC(=O)N(CCCCCC(=O)OCC2OC(n3ccc(N)nc3=O)C(F)(F)C2O)C1=O)NC(=O)CNC(=O)[C@H](CCCCN)NC(=O)COCCOCCNC(=O)COCCOCCNC(=O)CCC(NC(=O)CCCCCCCCCCCCCCCCC(=O)O)C(=O)O)C(=O)N[C@@H](CC(N)=O)C(=O)N[C@@H](CC(=O)O)C(=O)N[C@@H](CCCNC(=N)N)C(=O)N[C@@H](CCC(N)=O)C(=O)N[C@H](C(=O)N1CCC[C@H]1C(=O)NCC(=O)N[C@@H](Cc1ccc(O)cc1)C(=O)N[C@@H](CO)C(=O)N[C@H](C(=O)N[C@@H](Cc1ccc(O)cc1)C(=O)N[C@@H](Cc1c[nH]c2ccccc12)C(=O)NCC(=O)N[C@@H](CC(=O)O)C(=O)N[C@@H](Cc1ccccc1)C(N)=O)[C@@H](C)O)[C@@H](C)CC (stereo partly specified) ({C18 diacid-ξγGlu-AEEA-AEEA}-KGC(X6)GSDINDRQIPGYSTYWGDF-NH2)
